From US20140073691A1, “Methods and composition for Treating Thyroid Hormone Related Disorders” (Zafgen, Inc., priority 2010, published 2014)

Tested on: plasma thyroid stimulating hormone (TSH)
Experiment: Administration of MetAP-2 inhibitor to obese subjects: plasma TSH and circulating thyroid hormones
Assay type: in vivo, human (obese subjects)
Protocol: FIG. 1 depicts the results of administration of a MetAP2 inhibitor to obese patients and indicates the reduction in plasma thyroid stimulating hormone, without reductions in circulating thyroid hormone (free T3 and T4) concentrations.
8 obese subjects who were not taking any thyroid medication were treated with O-(4-dimethylaminoethoxycinnamoyl)fumagillol at a dose of 0.9 mg per square meter of body surface area (approximately 1.8 mg per dose) for 26 days. […] (FIG. 1). This is indicative of improved thyroid hormone sensitivity and a reduction in thyroid hormone resistance.

SMILES: CO[C@@H]1[C@H](OC(=O)C=Cc2ccc(OCCN(C)C)cc2)CC[C@]2(CO2)[C@H]1[C@@]1(C)O[C@@H]1CC=C(C)C [O-(4-dimethylaminoethoxycinnamoyl)fumagillol]
- plasma thyroid stimulating hormone (TSH) (8 obese subjects not taking thyroid medication, 0.9 mg per square meter of body surface area (approximately 1.8 mg per dose) for 26 days): significant reduction
- circulating thyroid hormone T4 (8 obese subjects, 0.9 mg per square meter of body surface area for 26 days, T4 (FIG. 1)): without a reduction
- circulating thyroid hormone T3 (8 obese subjects, 0.9 mg per square meter of body surface area for 26 days, free T3 (FIG. 1)): without a reduction
